Assay results as given in patent US20240083861A1, “HSD17B13 INHIBITORS AND USES THEREOF” (FL2022-001, Inc., priority 2020, published 2024).

Each molecule was assayed against T1, Recombinant human HSD17B13 enzyme (Homo sapiens, UniProt Q7Z5P4) (assay: HSD17b13 NAD(P)H-Glo biochemical assay). Settings: 50 uM estradiol, 1 mM NAD+, NAD(P)H-Glo luminescence; read-out: HSD17β13 IC50.
T1 sequence (Q7Z5P4 20-300): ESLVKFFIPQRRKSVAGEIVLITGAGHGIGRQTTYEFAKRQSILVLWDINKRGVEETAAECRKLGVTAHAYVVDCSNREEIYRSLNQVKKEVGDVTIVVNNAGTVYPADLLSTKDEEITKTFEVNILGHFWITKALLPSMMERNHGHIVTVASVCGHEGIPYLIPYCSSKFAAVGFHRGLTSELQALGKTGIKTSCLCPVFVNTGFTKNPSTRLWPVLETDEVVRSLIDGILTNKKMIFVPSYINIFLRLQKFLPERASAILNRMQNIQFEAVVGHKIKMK
Outline: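 Luminescent NAD(P)H-Glo read-out, taken after 1 hour at RT, measured cofactor reduction. Substrate and cofactor were estradiol at 50 uM and NAD+ at 1 mM final, reacted with the recombinant human enzyme for 3 hours at 37° C in 20 mM Tris pH7.4, 0.002% Tween-20, 0.02% BSA. Compound was pre-incubated with enzyme for 20 minutes at RT.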

First: CN1CCN(c2cc3c(cn2)c(-c2cc(C(F)(F)F)c(F)c(O)c2F)nn3C)CC1=O [Compound 9.68, 4-(3-(2,4-Difluoro-3-hydroxy-5-(trifluoromethyl)phenyl)-1-methyl-1H-pyrazolo[4,3-c]pyridin-6-yl)-1-methylpiperazin-2-one]
Second: Cn1nc(-c2cc(C(F)(F)F)c(F)c(O)c2F)c2cnc(N3CCN(C(=O)O)C(=O)C3)cc21 [Compound 9.79, 4-(3-(2,4-Difluoro-3-hydroxy-5-(trifluoromethyl)phenyl)-1-methyl-1H-pyrazolo[4,3-c]pyridin-6-yl)-2-oxopiperazine-1-carboxylic acid]
The IC50 of the first is lower: less than 100 nM for the first, 1000 to 30000 nM for the second.

`Cn1nc(-c2cc(C(F)(F)F)c(F)c(O)c2F)c2cnc(N3CCCOCC34CC4)cc21` [Compound 9.69, 2,6-Difluoro-3-(1-methyl-6-(8-oxa-4-azaspiro[2.6]nonan-4-yl)-1H-pyrazolo[4,3-c]pyridin-3-yl)-5-(trifluoromethyl)phenol] and `Cn1nc(-c2cc(C(F)(F)F)c(F)c(O)c2F)c2cnc(N3CCOCC34CCCC4)cc21` [Compound 9.84, 2,6-Difluoro-3-(1-methyl-6-(9-oxa-6-azaspiro[4.5]decan-6-yl)-1H-pyrazolo[4,3-c]pyridin-3-yl)-5-(trifluoromethyl)phenol] cannot be ordered by IC50: less than 100 nM for the first, less than 100 nM for the second.

`Cn1nc(-c2cc(C(F)(F)F)c(F)c(O)c2F)c2cnc(N3CCOCCC34CC4)cc21` [Compound 9.70, 2,6-Difluoro-3-(1-methyl-6-(7-oxa-4-azaspiro[2.6]nonan-4-yl)-1H-pyrazolo[4,3-c]pyridin-3-yl)-5-(trifluoromethyl)phenol] and `COC1CCN(c2cc3c(cn2)c(-c2cc(C(F)(F)F)c(F)c(O)c2F)nn3C)C2(CC2)C1` (stereo not shown) [Compound 9.83, 2,6-Difluoro-3-(6-(7-methoxy-4-azaspiro[2.5]octan-4-yl)-1-methyl-1H-pyrazolo[4,3-c]pyridin-3-yl)-5-(trifluoromethyl)phenol] cannot be ordered by IC50: less than 100 nM for the first, less than 100 nM for the second.

First: Oc1c(F)c(-c2nn(C3CCCOC3)c3nc(N4CCOCC45CC5)ccc23)cc(C(F)(F)F)c1F (stereo not shown) [Compound 9.71, 3-(6-(7-Oxa-4-azaspiro[2.5]octan-4-yl)-1-(tetrahydro-2H-pyran-3-yl)-1H-pyrazolo[3,4-b]pyridin-3-yl)-2,6-difluoro-5-(trifluoromethyl)phenol]
Second: COCCn1nc(-c2cc(C(F)(F)F)c(F)c(O)c2F)c2ccc(N3CCOCC34CC4)nc21 [Compound 9.72, 2,6-Difluoro-3-(1-(2-methoxyethyl)-6-(7-oxa-4-azaspiro[2.5]octan-4-yl)-1H-pyrazolo[3,4-b]pyridin-3-yl)-5-(trifluoromethyl)phenol]
The IC50 of the first is higher: 100 to 1000 nM for the first, less than 100 nM for the second.

`COCCn1nc(-c2cc(C(F)(F)F)c(F)c(O)c2F)c2cnc(N3CCOCC34CC4)cc21` [Compound 9.73, 2,6-Difluoro-3-(1-(2-methoxyethyl)-6-(7-oxa-4-azaspiro[2.5]octan-4-yl)-1H-pyrazolo[4,3-c]pyridin-3-yl)-5-(trifluoromethyl)phenol] and `COC1CCN(c2cc3c(cn2)c(-c2cc(C(F)(F)F)c(F)c(O)c2F)nn3C)C2(CCC2)C1` (stereo not shown) [Compound 9.75, 2,6-Difluoro-3-(6-(8-methoxy-5-azaspiro[3.5]nonan-5-yl)-1-methyl-1H-pyrazolo[4,3-c]pyridin-3-yl)-5-(trifluoromethyl)phenol] cannot be ordered by IC50: less than 100 nM for the first, less than 100 nM for the second.

`Cn1nc(-c2cc(C(F)(F)F)c(F)c(O)c2F)c2cnc(N3CCN(S(C)(=O)=O)CC34CC4)cc21` [Compound 9.74, 2,6-Difluoro-3-(1-methyl-6-(7-(methylsulfonyl)-4,7-diazaspiro[2.5]octan-4-yl)-1H-pyrazolo[4,3-c]pyridin-3-yl)-5-(trifluoromethyl)phenol] and `CC(=O)N1CCN(c2cc3c(cn2)c(-c2cc(C(F)(F)F)c(F)c(O)c2F)nn3C)C2(CC2)C1` [Compound 9.87, 1-(4-(3-(2,4-Difluoro-3-hydroxy-5-(trifluoromethyl)phenyl)-1-methyl-1H-pyrazolo[4,3-c]pyridin-6-yl)-4,7-diazaspiro[2.5]octan-7-yl)ethanone] cannot be ordered by IC50: less than 100 nM for the first, less than 100 nM for the second.

`Cn1nc(-c2cc(C(F)(F)F)c(F)c(O)c2F)c2cnc(N3CCOCC3C3CCOCC3)cc21` (stereo not shown) [Compound 9.76, 2,6-Difluoro-3-(1-methyl-6-(3-(tetrahydro-2H-pyran-4-yl)morpholino)-1H-pyrazolo[4,3-c]pyridin-3-yl)-5-(trifluoromethyl)phenol] and `Cn1nc(-c2cc(C(F)(F)F)c(F)c(O)c2F)c2cnc(N3CCOC4(CCOCC4)C3)cc21` [Compound 9.82, 2,6-Difluoro-3-(1-methyl-6-(1,9-dioxa-4-azaspiro [5.5]undecan-4-yl)-1H-pyrazolo[4,3-c]pyridin-3-yl)-5-(trifluoromethyl)phenol] cannot be ordered by IC50: less than 100 nM for the first, less than 100 nM for the second.

`COCC1CN(c2cc3c(cn2)c(-c2cc(C(F)(F)F)c(F)c(O)c2F)nn3C)CCO1` (stereo not shown) [Compound 9.77, 2,6-Difluoro-3-(6-(2-(methoxymethyl)morpholino)-1-methyl-1H-pyrazolo[4,3-c]pyridin-3-yl)-5-(trifluoromethyl)phenol] and `CNC(=O)C1CN(c2cc3c(cn2)c(-c2cc(C(F)(F)F)c(F)c(O)c2F)nn3C)CCO1` (stereo not shown) [Compound 9.80, 4-(3-(2,4-Difluoro-3-hydroxy-5-(trifluoromethyl)phenyl)-1-methyl-1H-pyrazolo[4,3-c]pyridin-6-yl)-N-methylmorpholine-2-carboxamide] cannot be ordered by IC50: less than 100 nM for the first, less than 100 nM for the second.

`Cn1nc(-c2cc(C(F)(F)F)c(F)c(O)c2F)c2cnc(N3CCOC4(CCC4)C3)cc21` [Compound 9.78, 2,6-Difluoro-3-(1-methyl-6-(5-oxa-8-azaspiro[3.5]nonan-8-yl)-1H-pyrazolo[4,3-c]pyridin-3-yl)-5-(trifluoromethyl)phenol] and `Cn1nc(-c2cc(C(F)(F)F)c(F)c(O)c2F)c2cnc(N3CCOC4(CCS(=O)(=O)CC4)C3)cc21` [Compound 9.88, 4-(3-(2,4-Difluoro-3-hydroxy-5-(trifluoromethyl)phenyl)-1-methyl-1H-pyrazolo[4,3-c]pyridin-6-yl)-1-oxa-9-thia-4-azaspiro[5.5]undecane 9,9-dioxide] cannot be ordered by IC50: less than 100 nM for the first, less than 100 nM for the second.

First: Cn1nc(-c2cc(C(F)(F)F)c(F)c(O)c2F)c2cc(F)c(N3CCOCC34CC4)nc21 [Compound 9.81, 2,6-Difluoro-3-(5-fluoro-1-methyl-6-(7-oxa-4-azaspiro[2.5]octan-4-yl)-1H-pyrazolo[3,4-b]pyridin-3-yl)-5-(trifluoromethyl)phenol]
Second: Cn1nc(-c2cc(C(F)(F)F)c(F)c(O)c2F)c2cnc(N3CCC(C(N)=O)CC34CC4)cc21 (stereo not shown) [Compound 9.85, 4-(3-(2,4-Difluoro-3-hydroxy-5-(trifluoromethyl)phenyl)-1-methyl-1H-pyrazolo[4,3-c]pyridin-6-yl)-4-azaspiro[2.5]octane-7-carboxamide]
The IC50 of the first is lower: less than 100 nM for the first, 100 to 1000 nM for the second.

`COC1(CN(C)c2cc3c(cn2)c(-c2cc(C(F)(F)F)c(F)c(O)c2F)nn3C)CCC1` [Compound 9.86, 2,6-Difluoro-3-(6-(((1-methoxycyclobutyl)methyl)(methyl)amino)-1-methyl-1H-pyrazolo[4,3-c]pyridin-3-yl)-5-(trifluoromethyl)phenol] and `CC1COC2(CCC2)CN1c1cc2c(cn1)c(-c1cc(C(F)(F)F)c(F)c(O)c1F)nn2C` (stereo not shown) [Compound 9.95, 2,6-Difluoro-3-(1-methyl-6-(7-methyl-5-oxa-8-azaspiro[3.5]nonan-8-yl)-1H-pyrazolo[4,3-c]pyridin-3-yl)-5-(trifluoromethyl)phenol] cannot be ordered by IC50: less than 100 nM for the first, less than 100 nM for the second.

First: Cn1nc(-c2cc(C(F)(F)F)c(F)c(O)c2F)c2cnc(N3CCOC(C)(C#N)C3)cc21 (stereo not shown) [Compound 9.89, 4-(3-(2,4-Difluoro-3-hydroxy-5-(trifluoromethyl)phenyl)-1-methyl-1H-pyrazolo[4,3-c]pyridin-6-yl)-2-methylmorpholine-2-carbonitrile]
Second: Cn1nc(-c2cc(C(F)(F)F)c(F)c(O)c2F)c2cnc(N3CCNC(=O)C3)cc21 [Compound 9.92, 4-(3-(2,4-Difluoro-3-hydroxy-5-(trifluoromethyl)phenyl)-1-methyl-1H-pyrazolo[4,3-c]pyridin-6-yl)piperazin-2-one]
The IC50 of the first is lower: less than 100 nM for the first, 100 to 1000 nM for the second.

`Cn1nc(-c2cc(C(F)(F)F)c(F)c(O)c2F)c2cnc(N3C[C@H]4CC[C@@H](C3)O4)cc21` [Compound 9.90, 3-(6-(cis-8-Oxa-3-azabicyclo[3.2.1]octan-3-yl)-1-methyl-1H-pyrazolo[4,3-c]pyridin-3-yl)-2,6-difluoro-5-(trifluoromethyl)phenol] and `COC12CC(CN(c3cc4c(cn3)c(-c3cc(C(F)(F)F)c(F)c(O)c3F)nn4C)C1)C2` [Compound 9.93, 2,6-Difluoro-3-(6-(1-methoxy-3-azabicyclo[3.1.1]heptan-3-yl)-1-methyl-1H-pyrazolo[4,3-c]pyridin-3-yl)-5-(trifluoromethyl)phenol] cannot be ordered by IC50: less than 100 nM for the first, less than 100 nM for the second.

`Cn1nc(-c2cc(C(F)(F)F)c(F)c(O)c2F)c2cnc(N3CCN(c4ccccc4)C(=O)C3)cc21` [Compound 9.91, 4-(3-(2,4-Difluoro-3-hydroxy-5-(trifluoromethyl)phenyl)-1-methyl-1H-pyrazolo[4,3-c]pyridin-6-yl)-1-phenylpiperazin-2-one] and `Cn1nc(-c2cc(C(F)(F)F)c(F)c(O)c2F)c2cnc(NC3CCOCC3)cc21` [Compound 9.94, 2,6-Difluoro-3-(1-methyl-6-((tetrahydro-2H-pyran-4-yl)amino)-1H-pyrazolo[4,3-c]pyridin-3-yl)-5-(trifluoromethyl)phenol] cannot be ordered by IC50: less than 100 nM for the first, less than 100 nM for the second.
